{"source": "patent US8975251B2", "about": "“Methods of improving cognitive functions” (Bar-Ilan University, priority 2009, dated 2015)", "key": {"[1]": {"test_system": "patients having acute exacerbation of schizophrenia", "assay": "Clinical trial, Brief Assessment of Cognition in Schizophrenia (BACS)", "type": "in vivo, human", "settings": "for BACS mean change from baseline at Day 42, Mean (SD): 42 days; for BACS Difference in LS-means vs. Placebo (ANCOVA) / BACS Difference in LS-mean vs. Risperidone (ANCOVA): Day 42; for cognitive functions as compared to the placebo: schizophrenic patients, human clinical trial", "procedure": "The trial was conducted at forty sites located in the USA, Europe and India. For the trial 363 patients were recruited and randomized equally. Drugs (BL-1020, 10 mg/day; BL-1020, 20-30 mg/day; risperidone, 2-8 mg/day and placebo) have been administered to designated patients (double blinded) daily over a period of 42 days.\nKey secondary efficacy measures included the Clinical Global Impression of Severity (CGI-S), the Clinical Global Impression of Change (CGI-C) from baseline, and effect on cognition as measured by the Brief Assessment of Cognition in Schizophrenia (BACS). Risperidone at a dose of 2-8 mg was included as a positive control to validate the study results.\nAssessments of cognitive functions of treated patients have been performed on day zero (baseline) and on day 42 (end of study), using the test battery designed for use in patients with schizophrenia [Richard Keefe (Ed.), Brief Assessment of Cognition in Schizophrenia (BACS) Version 3.0, Duke University Medical Center, 1999; and Keefe et al., Schizophrenia Research, 68: 283-297, 2004]. The battery consists of brief assessments of processing speed, reasoning and problem solving and verbal and working memory. A composite score is obtained by summing the z-scores of six measures (verbal memory, digit sequencing, token motor task, fluency, symbol coding and Tower of London)."}, "[2]": {"test_system": "PCP-induced reversal learning deficit", "assay": "PCP-induced reversal learning task in rats", "type": "in vivo, rat", "source_text": "Antipsychotic drugs: BL-1020 (perphenazine 4-aminobutyrate, mesylate salt; BioLineRx Ltd., Israel; administered per os); risperidone (Sigma, UK; administered intra-peritoneally); and perphenazine (Sigma, Israel; administered per os).\nGABAA antagonists: picrotoxin (Sigma, UK; administered intra-peritoneally); and bicuculline (Sigma, UK; administered intra-peritoneally).\nFemale hooded-Lister rats (Charles River, UK) were housed in groups of five under standard laboratory conditions under a 12 hr diurnal cycle. Rats were maintained at approx 85% of free-feeding body weight average (250 grams) for the duration of the study.\nFollowing habituation to the operant chambers, rats were trained to respond for food on an FR1 (Fixed Ratio 1) schedule of reinforcement with active levers active, as described by Abdul-Monim et al. (J. Psychopharmacology 17: 57-65, 2003). When a proper response for food was established the rats were trained to press either the left or right lever (only one of levers was active) for food delivery. The active lever was varied from day to day using a pseudorandom Gellerman schedule, which randomly assigns either the left or right lever as active, thus avoiding generation of a lever bias. Each session lasted 20 minutes and counts were recorded on each lever.\nFollowing completion of the first phase of training (within about two weeks) the rats were trained to respond ter food according to the position of a visual cue (a lit LED). Half of the rats were trained to press the lever under the lit LED in order to receive a food reward. The other half of the rats were trained on the opposite contingency (i.e., to press the lever under the non-lit LED). Each training session began with illumination of the house-light. After three seconds both levers, together with the visual cue, were presented. The cue was presented for one second. […] The levers were then retracted and the house light was extinguished for a three-second time-out period, during which the pellet was consumed (if a correct response had been made). The house-light was then turned on again and the cycle repeated. Following 128 lever presses (which lasted approximately 30 minutes) the training session was terminated.\nEach rat had one training session per day. Rats were required to make at least 115 responses on the correct lever (90% correct responding) on at least three consecutive days (which was generally achieved within two weeks). The contingency (visual cue, i.e. LED on or off, relative to active lever) remained constant during this period, though the position of the active lever varied from day to day according to a pseudo-random Gellerman schedule.\nSubsequently, rats were trained until they again reached criterion on the opposite contingency (which was generally achieved within two weeks)). Rats achieved criterion at the same rate irrespective of whether they responded to one rule or the other. […]\nFollowing a 7 day drug (PCP)-free period the rats were treated with test agents (antipsychotic drugs and GABAA-receptor antagonists). Sixty minutes later the rats were exposed for five-minutes (“initial phase”) to the same contingency (cue position relative to active lever) as was during the operant training session and their responses (pressing on correct and incorrect levers) were recorded. Following a two-minutes recess the animals were exposed for five-minutes to a reversed contingency (“reversal phase”) during which their responses (pressing on correct and incorrect levers) were recorded. […]"}}, "note": "Entries after “also recorded” stand apart in the source; their conditions may differ. Structures can show the parent of a compound that is named as a salt."}
{"molecule": "Cc1nc2n(c(=O)c1CCN1CCC(c3noc4cc(F)ccc34)CC1)CCCC2", "note": "[Risperidone, risperidone, reference compound]", "values": [{"measurement": "BACS test mean score at Baseline, Mean (SD)", "setting": "[1]; Risperidone 8 mg/day group, day 0, n = 91", "value": "13.5 (12.3)"}, {"measurement": "BACS mean change from baseline at Day 42, Mean (SD)", "setting": "[1]; Risperidone 8 mg/day", "value": "5.7 (6.2)"}, {"measurement": "BACS Difference in LS-means vs. Placebo (ANCOVA)", "setting": "[1]; Risperidone 8 mg/day", "value": 0.52}, {"measurement": "cognitive functions as compared to the placebo", "setting": "[1]", "value": "failed to improve cognitive functions"}]}
{"molecule": "NCCCC(=O)OCCN1CCN(CCCN2c3ccccc3Sc3ccc(Cl)cc32)CC1", "note": "[BL-1020, 4-amino-butyric acid 2-{4-[3-(2-chloro-phenothiazin-10-yl)-propyl]piperazin-1-yl}-ethyl ester]", "values": [{"measurement": "effect on PCP-induced reversal learning deficit (percent correct response)", "setting": "[2]; BL-1020 3 mg/kg per os, 60 min before task, p<0.01, 3 mg/kg", "value": "significantly improved; also recorded: significant improvement"}, {"measurement": "BACS test mean score at Baseline, Mean (SD)", "setting": "[1]; BL-1020 10 mg/day group, day 0, n = 90", "value": "16.7 (15.5)"}, {"measurement": "BACS mean change from baseline at Day 42, Mean (SD)", "setting": "[1]; BL-1020 10 mg/day", "value": "5.1 (7.1)"}, {"measurement": "BACS Difference in LS-mean vs. Risperidone (ANCOVA)", "setting": "[1]; BL-1020 10 mg/day", "value": 0.11}, {"measurement": "BACS Difference in LS-means vs. Placebo (ANCOVA)", "setting": "[1]; BL-1020 10 mg/day", "value": 0.63}, {"measurement": "BACS test mean score at Baseline, Mean (SD)", "setting": "[1]; BL-1020 30 mg/day group, day 0, n = 89", "value": "15.3 (15.5)"}, {"measurement": "BACS mean change from baseline at Day 42, Mean (SD)", "setting": "[1]; BL-1020 30 mg/day", "value": "8.3 (8.5)"}, {"measurement": "BACS Difference in LS-mean vs. Risperidone (ANCOVA)", "setting": "[1]; BL-1020 30 mg/day", "value": 3.40}, {"measurement": "BACS Difference in LS-means vs. Placebo (ANCOVA)", "setting": "[1]; BL-1020 30 mg/day", "value": 3.92}, {"measurement": "BACS score increase", "setting": "[1]; BL-1020 high dose 20-30 mg/day, after 42 days", "value": 8.3, "unit": "points"}, {"measurement": "cognitive functions as compared to the placebo", "setting": "[1]", "value": "significantly improved"}]}
{"molecule": "OCCN1CCN(CCCN2c3ccccc3Sc3ccc(Cl)cc32)CC1", "note": "[perphenazine]", "values": [{"measurement": "effect on PCP-induced reversal learning deficit (percent correct response)", "setting": "[2]; perphenazine 2.49 mg/kg per os (equivalent to perphenazine moiety in 3 mg/kg BL-1020)", "value": "did not significantly improve; also recorded: failed to improve cognitive functions"}]}
{"molecule": "c1ccc(C2(N3CCCCC3)CCCCC2)cc1", "note": "[PCP, phencyclidine hydrochloride]", "values": [{"measurement": "percent correct responding animals in the reversal learning task", "setting": "[2]; PCP 2 mg/kg intra-peritoneally twice daily for 7 days, p<0.01", "value": "significantly reduced"}]}
{"molecule": "picrotoxin", "values": [{"measurement": "effect on BL-1020 improvement of PCP-induced reversal learning deficit", "setting": "[2]; picrotoxin 0.5 mg/kg co-administered with BL-1020 3 mg/kg, p<0.001", "value": "negated the BL-1020 effect"}, {"measurement": "effect on PCP-induced reversal learning deficit (percent correct response)", "setting": "[2]; picrotoxin 0.25, 0.5 and 1 mg/kg intra-peritoneally", "value": "did not significantly improve"}]}
